Experiments:
Test in all cases: Test E pre-/postemergence greenhouse herbicide test
Type in all cases: in vivo
[1] = test system: waterhemp (common waterhemp, Amaranthus rudis); details: scale 0 to 100
Source text: (§1) Seeds of plant species selected from corn (Zea mays), soybean (Glycine max), lambsquarters (Chenopodium album), poinsettia, wild (wild poinsettia, Euphorbia heterophylla), pigweed, palmer (palmer pigweed, Amaranthus palmeri), waterhemp (common waterhemp, Amaranthus rudis), surinam grass (Brachiaria decumbens), crabgrass, large (large crabgrass Digitaria sanguinalis), crabgrass, Brazil (Brazilian crabgrass, Digitaria horizontalis), panicum, fall (fall panicum, Panicum dichotomiflorum), foxtail, giant (giant foxtail, Setaria faberii), foxtail, green (green foxtail, Setaria viridis), goosegrass (Eleusine indica), johnsongrass (Sorghum halepense), ragweed (common ragweed, Ambrosia elatior), barnyardgrass (Echinochloa crus-galli), sandbur (southern sandbur, Cenchrus echinatus), arrowleaf sida (Sida rhombifolia), ryegrass, Italian (Italian ryegrass, Lolium multiflorum), dayflower, VA (Virginia dayflower, Commelina virginica), field bindweed (Convolvulus arvensis), cocklebur (common cocklebur, Xanthium strumarium), morningglory (Ipomoea coccinea), nightshade (eastern black nightshade, Solanum ptycanthum), kochia (Kochia scoparia), nutsedge, yellow (yellow nutsedge, Cyperus esculentus), smartweed (ladysthumb smartweed, Polygonum persicaria), velvetleaf (Abutilon theophrasti), and beggarticks (hairy beggarticks, Bidens pilosa), were planted into a silt loam soil and treated preemergence with test chemicals formulated in a non-phytotoxic solvent mixture which included a surfactant.
(§2) At the same time, plants from these crop and weed species and also waterhemp_RES1, (ALS & Triazine resistant common waterhemp, Amaranthus rudis), and waterhemp_RES2, (ALS & HPPD resistant common waterhemp, Amaranthus rudis) were planted in pots containing Redi-Earth® planting medium (Scotts Company, 14111 Scottslawn Road, Marysville, Ohio 43041) comprising spaghnum peat moss, vermiculite, wetting agent and starter nutrients were treated with postemergence applications of test chemicals formulated in the same manner. Plants ranged in height from 2 to 18 cm for postemergence treatments (1- to 4-leaf stage). Treated plants and controls were maintained in a greenhouse for 14 to 21 d, after which time all species were compared to controls and visually evaluated. Plant response ratings, summarized in Table E, are based on a scale of 0 to 100 where 0 is no effect and 100 is complete control. A dash (-) response means no test result.

[2] = test system: ragweed (common ragweed, Ambrosia elatior); details: Preemergence, scale 0 to 100
Source text: as §1, §2

soybean (Glycine max) = details: scale 0 to 100
Source text: as §1, §2

[3] = test system: ryegrass, Italian (Italian ryegrass, Lolium multiflorum); details: scale 0 to 100
Source text: as §1, §2

[4] = test system: pigweed, palmer (palmer pigweed, Amaranthus palmeri); details: scale 0 to 100
Source text: as §1, §2

[5] = test system: field bindweed (Convolvulus arvensis); details: scale 0 to 100
Source text: as §1, §2

[6] = test system: morningglory (Ipomoea coccinea); details: Preemergence, scale 0 to 100
Source text: as §1, §2

[7] = test system: johnsongrass (Sorghum halepense); details: Preemergence, scale 0 to 100
Source text: as §1, §2

[8] = test system: lambsquarters (Chenopodium album); details: Preemergence, scale 0 to 100
Source text: as §1, §2

[9] = test system: sandbur (southern sandbur, Cenchrus echinatus); details: scale 0 to 100
Source text: as §1, §2

[10] = test system: crabgrass, Brazil (Brazilian crabgrass, Digitaria horizontalis); details: scale 0 to 100
Source text: as §1, §2

[11] = test system: nightshade (eastern black nightshade, Solanum ptycanthum); details: Preemergence, scale 0 to 100
Source text: as §1, §2

[12] = test system: barnyardgrass (Echinochloa crus-galli); details: scale 0 to 100
Source text: as §1, §2

[13] = test system: arrowleaf sida (Sida rhombifolia); details: scale 0 to 100
Source text: as §1, §2

[14] = test system: beggarticks (hairy beggarticks, Bidens pilosa); details: scale 0 to 100
Source text: as §1, §2

COc1cc(=O)n(-c2ccc(C(F)(F)F)cc2)nc1Cc1ccnc(C(F)(F)F)c1 [Compound 16, 5-methoxy-2-[4-(trifluoromethyl)phenyl]-6-[[2-(trifluoromethyl)-4-pyridinyl]methyl]-3(2H)-pyridazinone]
Plant response rating: Waterhemp ([1]; Postemergence, 62 g ai/ha): 80
Plant response rating: Waterhemp ([1]; Postemergence, 125 g ai/ha): 80
Plant response rating: Waterhemp ([1]; Postemergence, 250 g ai/ha): 100
Plant response rating: Waterhemp ([1]; Preemergence, 62 g ai/ha): 100
Plant response rating: Waterhemp ([1]; Preemergence, 125 g ai/ha): 100
Plant response rating: Waterhemp ([1]; Preemergence, 250 g ai/ha): 100
Plant response rating: Ragweed ([2]; 62 g ai/ha): 0
Plant response rating: Ragweed ([2]; 125 g ai/ha): 0
Plant response rating: Ragweed ([2]; 250 g ai/ha): 95
Plant response rating: Soybean (soybean (Glycine max); Postemergence, 62 g ai/ha): 35
Plant response rating: Soybean (soybean (Glycine max); Postemergence, 125 g ai/ha): 50
Plant response rating: Soybean (soybean (Glycine max); Postemergence, 250 g ai/ha): 85
Plant response rating: Soybean (soybean (Glycine max); Preemergence, 62 g ai/ha): 0
Plant response rating: Soybean (soybean (Glycine max); Preemergence, 125 g ai/ha): 20
Plant response rating: Soybean (soybean (Glycine max); Preemergence, 250 g ai/ha): 50
Plant response rating: Ryegrass, Italian ([3]; Postemergence, 62 g ai/ha): 20
Plant response rating: Ryegrass, Italian ([3]; Postemergence, 125 g ai/ha): 20
Plant response rating: Ryegrass, Italian ([3]; Postemergence, 250 g ai/ha): 40
Plant response rating: Ryegrass, Italian ([3]; Preemergence, 62 g ai/ha): 20
Plant response rating: Ryegrass, Italian ([3]; Preemergence, 125 g ai/ha): 20
Plant response rating: Ryegrass, Italian ([3]; Preemergence, 250 g ai/ha): 50
Plant response rating: Pigweed, Palmer ([4]; Postemergence, 62 g ai/ha): 70
Plant response rating: Pigweed, Palmer ([4]; Postemergence, 125 g ai/ha): 75
Plant response rating: Pigweed, Palmer ([4]; Postemergence, 250 g ai/ha): 95
Plant response rating: Pigweed, Palmer ([4]; Preemergence, 62 g ai/ha): 98
Plant response rating: Pigweed, Palmer ([4]; Preemergence, 125 g ai/ha): 98
Plant response rating: Pigweed, Palmer ([4]; Preemergence, 250 g ai/ha): 98
Plant response rating: Field Bindweed ([5]; Postemergence, 62 g ai/ha): 50
Plant response rating: Field Bindweed ([5]; Postemergence, 125 g ai/ha): 65
Plant response rating: Field Bindweed ([5]; Postemergence, 250 g ai/ha): 75
Plant response rating: Field Bindweed ([5]; Preemergence, 62 g ai/ha): 5
Plant response rating: Field Bindweed ([5]; Preemergence, 125 g ai/ha): 30
Plant response rating: Field Bindweed ([5]; Preemergence, 250 g ai/ha): 100
Plant response rating: Morningglory ([6]; 62 g ai/ha): 25
Plant response rating: Morningglory ([6]; 125 g ai/ha): 65
Plant response rating: Morningglory ([6]; 250 g ai/ha): 80
Plant response rating: Johnsongrass ([7]; 62 g ai/ha): 35
Plant response rating: Johnsongrass ([7]; 125 g ai/ha): 60
Plant response rating: Johnsongrass ([7]; 250 g ai/ha): 60
Plant response rating: Lambsquarters ([8]; 62 g ai/ha): 98
Plant response rating: Lambsquarters ([8]; 125 g ai/ha): 98
Plant response rating: Lambsquarters ([8]; 250 g ai/ha): 100
Plant response rating: Sandbur ([9]; Postemergence, 62 g ai/ha): 30
Plant response rating: Sandbur ([9]; Postemergence, 125 g ai/ha): 35
Plant response rating: Sandbur ([9]; Postemergence, 250 g ai/ha): 50
Plant response rating: Sandbur ([9]; Preemergence, 62 g ai/ha): 40
Plant response rating: Sandbur ([9]; Preemergence, 125 g ai/ha): 65
Plant response rating: Sandbur ([9]; Preemergence, 250 g ai/ha): 80
Plant response rating: Crabgrass, Brazil ([10]; Postemergence, 62 g ai/ha): 20
Plant response rating: Crabgrass, Brazil ([10]; Postemergence, 125 g ai/ha): 30
Plant response rating: Crabgrass, Brazil ([10]; Postemergence, 250 g ai/ha): 50
Plant response rating: Crabgrass, Brazil ([10]; Preemergence, 62 g ai/ha): 100
Plant response rating: Crabgrass, Brazil ([10]; Preemergence, 125 g ai/ha): 100
Plant response rating: Crabgrass, Brazil ([10]; Preemergence, 250 g ai/ha): 100
Plant response rating: Nightshade ([11]; 62 g ai/ha): 80
Plant response rating: Nightshade ([11]; 125 g ai/ha): 100
Plant response rating: Nightshade ([11]; 250 g ai/ha): 100
Plant response rating: Barnyardgrass ([12]; Postemergence, 62 g ai/ha): 15
Plant response rating: Barnyardgrass ([12]; Postemergence, 125 g ai/ha): 30
Plant response rating: Barnyardgrass ([12]; Postemergence, 250 g ai/ha): 50
Plant response rating: Barnyardgrass ([12]; Preemergence, 62 g ai/ha): 35
Plant response rating: Barnyardgrass ([12]; Preemergence, 125 g ai/ha): 50
Plant response rating: Barnyardgrass ([12]; Preemergence, 250 g ai/ha): 70
Plant response rating: Arrowleaf Sida ([13]; Postemergence, 62 g ai/ha): 60
Plant response rating: Arrowleaf Sida ([13]; Postemergence, 250 g ai/ha): 80
Plant response rating: Arrowleaf Sida ([13]; Preemergence, 62 g ai/ha): 0
Plant response rating: Arrowleaf Sida ([13]; Preemergence, 125 g ai/ha): 0
Plant response rating: Arrowleaf Sida ([13]; Preemergence, 250 g ai/ha): 5
Plant response rating: Beggarticks ([14]; Postemergence, 62 g ai/ha): 30
Plant response rating: Beggarticks ([14]; Postemergence, 125 g ai/ha): 50
Plant response rating: Beggarticks ([14]; Postemergence, 250 g ai/ha): 50
Plant response rating: Beggarticks ([14]; Preemergence, 62 g ai/ha): 0
Plant response rating: Beggarticks ([14]; Preemergence, 125 g ai/ha): 0
Plant response rating: Beggarticks ([14]; Preemergence, 250 g ai/ha): 20

Reference: patent publication US10202361B2, “Pyridazinones as herbicides” (E I DU PONT DE NEMOURS AND COMPANY, priority 2014, dated 2019)
